Patent US6071884A, “Pharmaceutical compositions and therapeutic methods” (Kirin Beer Kabushiki Kaisha, priority 1992, dated 2000)

Columns and labels:
blood platelets [1] = test: Thrombocytopenia-inhibiting effect in X-ray-irradiated mice; type: in vivo, mouse (BDF1); details: 10 days after 5 Gy X-ray; 0.1 mg/kg i.v. within 2 h; mean ± SD; vehicle per series 10.3, 6.8, 6.7; non-treatment 68.2, 96.9, 73.0
Description: Pharmacological Test 5: Thromboclytopenia-Inhibiting Effect
The thrombocytopenia-inhibiting effect of each sample upon an X-ray-irradiated mouser which is one of models with a decreased number of blood platelets was examined.
An experiment was carried out by using 6 week old female BDF1 mice purchased from Japan SLC Co., Ltd., with 6 mice made one group.
5 Gy of X ray was irradiated to the entire body of the mice by a Hitachi X-ray irradiator CMBR-1520R). Within 2 hours after the irradiation, each sample was administered to the caudal vein of the mice at an amount of 0.1 mg/kg.
After 10 days, blood was collected from the fundus vein of the mice, and the number of blood platelets was measured by a sequential multi-channel hemocytometer E-2500/cs (Toa Iyo Denshi Kabushiki Kaisha). The number of blood platelets of the non-treated group, that of the medium-administered group, and that of the sample-administered group are shown in Table 5.

[2] = tested on: marrow cells (mononuclear cell fraction); test: Proliferation-stimulating effect on marrow cell of mouse (3H-TdR uptake); type: cell-based, mouse (BALB/c); details: percentage of control, 72 h; for activity at 0.1 µg/mL: 10^-1 μg/ml; for activity at 0.01 µg/mL: 10^-2 μg/ml; for activity at 0.001 µg/mL: 10^-3 μg/ml; for activity at 1 µg/mL: 10^0 μg/ml
Description: Pharmacological Test 1: Proliferation-Stimulating Effect on Marrow Cell of Mouse
Marrow cells were prepared from the thigh bone of a 7 week old female BALB/c mouse purchased from Japan SLC Co., Ltd., and a mononuclear cell fraction (MNF) obtained by fractionation using a lympholyte-M (Cedar Lane, Ontario, Canada) was used in the following experiment.
The concentration of the MNF was adjusted to 1.5×10^6 cells/ml by using 10% FCS RPMI 1640 (Nissui Pharmaceutical Co., Ltd., Tokyo, Japan) as a culture medium. 10 μl/well of a sample with a predetermined concentration and 100 μl/well of the above-prepared MNF were placed on a round-bottomed 96 well plate, and incubated under the conditions of 37° C. and 5% CO2 for 72 hours. Thereafter, 0.5 μCi/well of ^3 H-thymidine (^3 H-TDR) was added. After 8 hour incubation, the cells were harvested, and the amount of the 3H-TdR taken in the nuclei was measured by a liquid scintillation counter.

blood platelets [3] = test: Blood-platelet-increasing effect upon normal mouse; type: in vivo, mouse (BDF1); details: normal mice; 6 days after 0.1 mg/kg i.v.; mean ± SD; vehicle per series 58.2, 63.0, 71.1
Description: Pharmacological Test 6: Blood-Platelet-Increasing Effect upon Mouse
An experiment was carried out by using 6 week old female BDF1 mice purchased from Japan SLC Co., Ltd., with 5 mice made one group.
Each sample was administered to the caudal vein of the mice at a dose of 0.1 mg/kg. After 6 days, blood was collected from the fundus vein of the mice, and the number of blood platelets was measured by a sequential multi-channel hemocytometer E-2500/cs (Toa Iyo Denshi Kabushiki Kaisha). The number of blood platelets of the vehicle-administered group, and that of the sample-administered group are shown in Table 6.

[4] = Life-span-increasing effect on irradiation of a lethal dose of radiation; type: in vivo, mouse (BDF1); details: 10 mice/group, 9 Gy X-ray, 0.1 mg/kg i.v. days 0, 4, 8
Description: Pharmacological Test 4: Life-Span-Increasing Effect on Irradiation of a Lethal Dose of Radiation
An experiment was carried out by using 6 week old female BDF1 mice purchased from Japan SLC Co., Ltd., with 10 mice made one group.
The entire bodies of the entire body of the mice were irradiated with 9 Gy of X-rays by using a Hitachi X-ray irradiator (MBR-1520R), and the day on which the X-ray was irradiated was referred to as "day 0".

[5] = day 10, controls per series 10, 10, 10, 10, 10, 8
[6] = day 15, controls per series 8, 9, 5, 5, 7, 1
[7] = day 20, controls per series 4, 5, 1, 2, 3, 0
[8] = day 25, controls per series 3, 3, 0, 0, 2, 0
[9] = day 30, controls per series 1, 1, 0, 0, 0, 0

CCCCCCCCCCCCCC(=O)N[C@@H](CO[C@H]1O[C@H](CO)[C@H](O)[C@H](O)[C@H]1O)[C@H](O)CCCCCCCCCCCCC [Compound 10, (2S,3R)-1-(α-D-galactopyranosyloxy)-2-tetradecanoylamino-3-hexadecanol]
Number of Blood Platelets (blood platelets [1]): 19.6 ± 4.0 × 10^4 /μl
activity at 0.1 µg/mL [2]: 356%
activity at 0.01 µg/mL [2]: 90%
activity at 0.001 µg/mL [2]: 77%
Number of Blood Platelets (blood platelets [3]): 87.2 ± 4.0 × 10^4 /μl
Number of Surviving Mice [4, 5]: 10 mice
Number of Surviving Mice [4, 6]: 8 mice
Number of Surviving Mice [4, 7]: 7 mice
Number of Surviving Mice [4, 8]: 7 mice
Number of Surviving Mice [4, 9]: 7 mice
Number of Surviving Mice ([4]; day 35, all controls 0): 7 mice
Number of Surviving Mice ([4]; day 40, all controls 0): 7 mice

CCCCCCCCCCCCC/C=C/[C@@H](O)[C@H](CO[C@H]1O[C@H](CO)[C@H](O)[C@H](O)[C@H]1O)NC(=O)CCCCCCCCCCCCCCCCC [Compound 15, (2S,3R,4E)-1-(α-D-galactopyranosyloxy)-2-octadecanoylamino-4-octadecen-3-ol]
Number of Blood Platelets (blood platelets [1]): 17.8 ± 2.4 × 10^4 /μl
activity at 1 µg/mL [2]: 979%
activity at 0.1 µg/mL [2]: 292%
activity at 0.01 µg/mL [2]: 101%
activity at 0.001 µg/mL [2]: 69%
Number of Blood Platelets (blood platelets [3]): 84.7 ± 6.0 × 10^4 /μl
Number of Surviving Mice [4, 5]: 10 mice
Number of Surviving Mice [4, 6]: 9 mice
Number of Surviving Mice [4, 7]: 6 mice
Number of Surviving Mice [4, 8]: 6 mice
Number of Surviving Mice [4, 9]: 6 mice
Number of Surviving Mice ([4]; day 35, all controls 0): 6 mice
Number of Surviving Mice ([4]; day 40, all controls 0): 6 mice

CCCCCCCCCCCCCCCCCCCCCCCC(=O)N[C@@H](CO[C@H]1O[C@H](CO)[C@H](O)[C@H](O)[C@H]1O)[C@H](O)[C@H](O)CCCCCCC [Compound 19, (2S,3S,4R)-1-(α-D-galactopyranosyloxy)-2-tetracosanoylamino-3,4-undecanediol]
Number of Blood Platelets (blood platelets [1]): 23.4 ± 4.2 × 10^4 /μl
activity at 0.1 µg/mL [2]: 499%
activity at 0.01 µg/mL [2]: 207%
activity at 0.001 µg/mL [2]: 173%
Number of Blood Platelets (blood platelets [3]): 106.4 ± 12.7 × 10^4 /μl
Number of Surviving Mice [4, 5]: 10 mice
Number of Surviving Mice [4, 6]: 10 mice
Number of Surviving Mice [4, 7]: 10 mice
Number of Surviving Mice [4, 8]: 10 mice
Number of Surviving Mice [4, 9]: 10 mice
Number of Surviving Mice ([4]; day 35, all controls 0): 10 mice
Number of Surviving Mice ([4]; day 40, all controls 0): 10 mice

CCCCCCCCCCCCCCCCCCCCCC[C@@H](O)C(=O)N[C@@H](CO[C@H]1O[C@H](CO)[C@H](O)[C@H](O)[C@H]1O)[C@H](O)[C@H](O)CCCCCCC [Compound 24, (2S,3S,4R)-1-(α-D-galactopyranosyloxy)-2-[(R)-2-hydroxytetracosanoylamino]-3,4-undecanediol]
Number of Blood Platelets (blood platelets [1]): 21.6 ± 7.2 × 10^4 /μl
activity at 1 µg/mL [2]: 576%
activity at 0.1 µg/mL [2]: 197%
activity at 0.01 µg/mL [2]: 79%
activity at 0.001 µg/mL [2]: 77%
Number of Blood Platelets (blood platelets [3]): 102.6 ± 9.9 × 10^4 /μl
Number of Surviving Mice [4, 5]: 10 mice
Number of Surviving Mice [4, 6]: 9 mice
Number of Surviving Mice [4, 7]: 9 mice
Number of Surviving Mice [4, 8]: 9 mice
Number of Surviving Mice [4, 9]: 9 mice
Number of Surviving Mice ([4]; day 35, all controls 0): 9 mice
Number of Surviving Mice ([4]; day 40, all controls 0): 9 mice

CCCCCCCCCCCCCCCCCCCCCCCC[C@@H](O)C(=O)N[C@@H](CO[C@H]1O[C@H](CO)[C@H](O)[C@H](O)[C@H]1O)[C@H](O)[C@H](O)CCCCCCCCCCCCCCC [Compound 26, (2S,3S,4R)-1-(α-D-galactopyranosyloxy)-2-[(R)-2-hydroxyhexacosanoylamino]-3,4-nonadecanediol]
Number of Blood Platelets (blood platelets [1]): 19.8 ± 4.3 × 10^4 /μl
activity at 0.1 µg/mL [2]: 271%
activity at 0.01 µg/mL [2]: 183%
activity at 0.001 µg/mL [2]: 156%
Number of Blood Platelets (blood platelets [3]): 113.7 ± 7.1 × 10^4 /μl
Number of Surviving Mice [4, 5]: 10 mice
Number of Surviving Mice [4, 6]: 9 mice
Number of Surviving Mice [4, 7]: 9 mice
Number of Surviving Mice [4, 8]: 8 mice
Number of Surviving Mice [4, 9]: 8 mice
Number of Surviving Mice ([4]; day 35, all controls 0): 8 mice
Number of Surviving Mice ([4]; day 40, all controls 0): 8 mice

CCCCCCCC/C=C\CCCCCCCC(=O)N[C@@H](CO[C@H]1O[C@H](CO)[C@H](O)[C@H](O)[C@H]1O)[C@H](O)CCCCCCCCCCCCCCC [Compound 29, (2S,3R)-1-(α-D-galactopyranosyloxy)-2-oleoylamino-3-octadecanol]
Number of Blood Platelets (blood platelets [1]): 18.1 ± 5.0 × 10^4 /μl
activity at 1 µg/mL [2]: 865%
activity at 0.1 µg/mL [2]: 382%
activity at 0.01 µg/mL [2]: 187%
activity at 0.001 µg/mL [2]: 97%
Number of Blood Platelets (blood platelets [3]): 86.3 ± 3.1 × 10^4 /μl
Number of Surviving Mice [4, 5]: 10 mice
Number of Surviving Mice [4, 6]: 9 mice
Number of Surviving Mice [4, 7]: 8 mice
Number of Surviving Mice [4, 8]: 8 mice
Number of Surviving Mice [4, 9]: 8 mice
Number of Surviving Mice ([4]; day 35, all controls 0): 8 mice
Number of Surviving Mice ([4]; day 40, all controls 0): 8 mice

CCCCCCCCCCCCCCCCCCCCCC[C@H](O)C(=O)N[C@@H](CO[C@H]1O[C@H](CO)[C@H](O)[C@H](O)[C@H]1O)[C@H](O)[C@H](O)CCCCCCCCCCCC(C)C [Compound 30, (2S,3S,4R)-1-(α-D-galactopyranosyloxy)-2-[(S)-2-hydroxytetracosanoylamino]-16-methyl-3,4-heptadecanediol]
Number of Blood Platelets (blood platelets [1]): 22.5 ± 3.5 × 10^4 /μl
activity at 1 µg/mL [2]: 712%
activity at 0.1 µg/mL [2]: 293%
activity at 0.01 µg/mL [2]: 105%
activity at 0.001 µg/mL [2]: 92%
Number of Blood Platelets (blood platelets [3]): 106.2 ± 9.0 × 10^4 /μl
Number of Surviving Mice [4, 5]: 10 mice
Number of Surviving Mice [4, 6]: 10 mice
Number of Surviving Mice [4, 7]: 10 mice
Number of Surviving Mice [4, 8]: 10 mice
Number of Surviving Mice [4, 9]: 10 mice
Number of Surviving Mice ([4]; day 35, all controls 0): 10 mice
Number of Surviving Mice ([4]; day 40, all controls 0): 10 mice
